Results from patent US20090010873A1, “Methods of Cell Therapy, Neurogenesis and Oligodendrogenesis” (YEDA RESEARCH AND DEVELOPMENT CO. LTD., priority 2004, published 2009).

Assays:
[1] = tested on: neural progenitor cells (NPCs); test: NPCs co-cultured with microglia pre-activated by aggregated Aβ and cytokines (β-III-tubulin); assay type: cell-based, mouse; settings: 10 days co-culture; Aβ 5 μM, IFN-γ 10 ng/ml
Protocol: (xlvi) Reagents. Recombinant mouse IFN-γ and IL-4 (both containing endotoxin at a concentration below 0.1 ng/μg cytokine) were obtained from R&D Systems (Minneapolis, Minn.). β-amyloid peptides [amyloid protein fragment 1-40 and 1-42 (Aβ1-40/1-42)] were purchased from Sigma-Aldrich, St. Louis, Mo. The Aβ peptides were dissolved in endotoxin-free water, and Aβ aggregates were formed by incubation of Aβ, as described (Ishii et al., 2000).
(li) Neural progenitor cell culture. Coronal sections (2 mm thick) of tissue containing the subventricular zone of the lateral ventricle were obtained from the brains of adult C57B1/6J mice. The tissue was minced and then incubated for digestion at 37° C., 5% CO2 for 45 min in Earle's balanced salt solution containing 0.94 mg/ml papain (Worthington, Lakewood, N.J.) and 0.18 mg/ml of L-cysteine and EDTA. After centrifugation at 110×g for 15 min at room temperature, the tissue was mechanically dissociated by pipette trituration. Cells obtained from single-cell suspensions were plated (3500 cells/cm^2) in 75-cm^2 Falcon tissue-culture flasks (BD Biosciences, San Diego, Calif.), in NPC-culturing medium [Dulbecco's modified Eagles's medium (DMEM)/F12 medium (Gibco/Invitrogen, Carlsbad, Calif.) containing 2 mM L-glutamine, 0.6% glucose, 9.6 μg/ml putrescine, 6.3 ng/ml progesterone, 5.2 ng/ml sodium selenite, 0.02 mg/ml insulin, 0.1 mg/ml transferrin, 2 μg/ml heparin (all from Sigma-Aldrich, Rehovot, Israel), fibroblast growth factor-2 (human recombinant, 20 ng/ml), and epidermal growth factor (human recombinant, 20 ng/ml; both from Peprotech, Rocky Hill, N.J.)]. Spheres were passaged every 4-6 days and replated as single cells. Green fluorescent protein (GFP)-expressing NPCs were obtained as previously described (Pluchino et al., 2003).
(lii) Primary microglial culture. Brains from neonatal (P0-P1) C57B1/6J mice were stripped of their meninges and minced with scissors under a dissecting microscope (Zeiss, Stemi DV4, Germany) in Leibovitz-15 medium (Biological Industries, Kibbutz Beit Ha-Emek, Israel). […]

[2] = tested on: C57B1/6J mice with spinal cord injury; test: Spinal cord contusion in mice: motor recovery (Basso motor score) after immunization and aNPC transplantation; assay type: in vivo, mouse
[3] = tested on: neural progenitor cells (NPCs); test: Oligodendrocyte differentiation of GFP-expressing NPCs co-cultured with differently activated microglia (NG2, RIP); assay type: cell-based, mouse; settings: direct addition to NPCs, 500 ng/ml, no insulin
Protocol: (i) Neuralprogenitor cell (NPC) culture. Coronal sections (2 mm thick) of tissue containing the subventricular zone of the lateral ventricle were obtained from the brains of adult C57B16/J mice. The tissue was minced and then incubated for digestion at 37° C., 5% CO2 for 45 mine in Earle's balanced salt solution containing 0.94 mg/ml papain (Worthington, Lakewood, N.J.) and 0.18 mg/ml of L-cysteine and EDTA. After centrifugation at 110×g for 15 min at room temperature, the tissue was mechanically dissociated by pipette trituration. Cells obtained from single-cell suspensions were plated (3500 cells/cm^2) in 75-cm^2 Falcon tissue-culture flasks (BD Biosciences, Franklin Lakes, N.J.), in NPC-culturing medium [Dulbecco's modified Eagles's medium (DMEM)/F12 medium (Gibco/Invitrogen, Carlsbad, Calif.) containing 2 mM L-glutamine, 0.6% glucose, 9.6 μg/ml putrescine, 6.3 ng/ml progesterone, 5.2 ng/ml sodium selenite, 0.02 mg/ml insulin, 0.1 mg/ml transferrin, 2 μg/ml heparin (all from Sigma-Aldrich, Rehovot, Israel), fibroblast growth factor-2 (human recombinant, 20 ng/ml), and epidermal growth factor (human recombinant, 20 ng/ml; both from Peprotech, Rocky Hill, N.J.)]. Spheres were passaged every 4-6 days and replated as single cells. Green fluorescent protein (GFP)-expressing neural progenitor cells (NPCs) were obtained as previously described (Pluchino et al., 2003). […]

## Aβ(1-40): aggregated amyloid protein fragment 1-40 used to activate microglia
[1]
  GFP^+/βIIIT^+ cells (neurogenesis) with microglia activated by the agent: blocked neurogenesis

## altered MOG peptide (45D) MEVGWYRSPFDRVVHLYRNGK [45D peptide, peptide analog of MOG 35-55 containing a serine to aspartic acid substitution]
[2]; immunization in CFA 2.5% M. tuberculosis 1 week before SCI, aNPCs i.c.v. 1 week after SCI, mean±SEM
  BMS: 4.11±0.27
[2]; immunization in CFA 2.5% M. tuberculosis 1 week before SCI, without aNPC transplantation
  BMS: 2.57±0.24

## MOG, residues 35-55 MEVGWYRSPFSRVVHLYRNGK (emulsified in CFA) [MOG/CFA, MOG peptide 35-55 emulsified in CFA containing 2.5% Mycobacterium tuberculosis]
[2]; MOG peptide 35-55 in CFA 2.5% M. tuberculosis one week prior to SCI, no aNPCs
  BMS: 0.35±0.2

## MOG/CFA/PBS: immunization with pMOG 35-55 in CFA, PBS i.c.v. instead of aNPCs (MEVGWYRSPFSRVVHLYRNGK; in CFA; UniProt Q61885 63-83, looked up, fragment)
[2]; immunization immediately after SCI (pMOG 35-55 or PBS in CFA 0.5% M. tuberculosis), aNPCs or PBS i.c.v. 1 week later, mean±SEM
  mean motor recovery (BMS) score: 2.71±0.5

## rIGF-I: recombinant IGF-I
[3]
  differentiation of NPCs to NG2-expressing cells: significant differentiation to NG2-expressing cells

## OVA/CFA/PBS: nonself protein ovalbumin (OVA) emulsified in CFA, PBS i.c.v.
[2]; ovalbumin in CFA 2.5% M. tuberculosis, aNPCs or PBS i.c.v.
  BMS: 2.2±0.68

## Aβ(1-42): amyloid protein fragment 1-42 used to activate microglia
[1]
  GFP^+/βIIIT^+ cells (neurogenesis) with microglia activated by the agent: negative effect was not exhibited
